BigSolDB 2.1

Settings: in tetrachloromethane

C[C@@H]1CC[C@@]2(OC1)O[C@H]1C[C@H]3[C@@H]4CC=C5C[C@@H](O)CC[C@]5(C)[C@H]4CC[C@]3(C)[C@H]1[C@@H]2C
Settings	solubility (mole fraction)
291.95 K	0.00286
297.45 K	0.00334
299.85 K	0.00381
302.75 K	0.00429
306.95 K	0.00487
308.95 K	0.00536
311.35 K	0.00578
313.65 K	0.0063
316.15 K	0.00676
317.95 K	0.00718
318.95 K	0.00763
320.55 K	0.00804
322.35 K	0.00857
323.65 K	0.00905
325.15 K	0.0095
326.35 K	0.0099
327.85 K	0.0105
328.95 K	0.0109
